# Values quoted from earlier work, collected in patent publication US20250161386A1, “METHOD OF IMPROVING COGNITIVE FUNCTION IN ADULTS” (SEMPERA ORGANICS, INC., priority 2023, published 2025).
# Key:
# [1] = rat, oral administration of H. erinaceus mycelia extract
# [2] = system: pro-brain-derived neurotrophic factor (BDNF); conditions: mice, after administration
SMILES,time of peak plasma concentration post dose [1],circulating pro-BDNF [2]
CC(C)C1=C2[C@H]3CCC4=C(O)C(=O)[C@@]5(O)CO[C@H]6O[C@@H]([C@@H]4[C@]65O)[C@]3(C)CC[C@@]2(C)CC1 [erinacine S],270 min,
CCCCCCCCCCCCCCCC(=O)OCc1cc(OC)c(C/C=C(\C)CCC=C(C)C)c(O)c1C=O [hericene A],,increase
